In PMC3735853 (Journal of biomolecular screening, 2013):
Where two headings read alike, the source gives them in different places.

Key:
[1] = molecular target: hV2R[L^83Q] (Homo sapiens, UniProt P30518, L83Q); test: uHTS optimized primary V2R pharmacoperone assay; format: cell-based; settings: for LOPAC Screen Average %Response +/−Std Dev: single concentration of 6 μM (0.4% DMSO), normalized to 100 nM SR121463 (positive) and DMSO (negative), triplicate
[2] = molecular target: V2R; settings: cited from earlier work

Row | LOPAC Screen Average %Response +/−Std Dev [1] | lowest level detectable in the assay system ([1]; no-wash protocol) | EC50 ([1]; read-out: EC50 (pharmacoperone rescue), presence of 1 μM vasopressin, no-wash protocol, absence of doxycycline (n=4)) | Compound | EC50 [1] | Ki ([2]; read-out: Ki (antagonist), no reference given) | Ki ([2]; read-out: Ki of SR121463 (literature value), used to perform the fit)
1 | 104+/−0% |  |  | C=C[C@@]1(C)CC(=O)[C@]2(O)[C@@]3(C)[C@@H](O)CCC(C)(C)[C@@H]3[C@H](O)[C@H](OC(C)=O)[C@@]2(C)O1 [Forskolin] | 430 nM |  | 
2 | 74+/−2% |  |  | Cc1ccccc1N1CCN(S(=O)(=O)C[C@]23CC[C@H](C[C@@H]2NC(=O)[C@@H](N)CCS(C)(=O)=O)C3(C)C)CC1 [L-368,899] |  |  | 
3 |  | 1 nM | 1.97 ± 0.25 nM | CCOc1ccc2c(c1)C1(CCC(OCCN3CCOCC3)CC1)C(=O)N2S(=O)(=O)c1ccc(C(=O)NC(C)(C)C)cc1OC (stereo not drawn) [SR121463] |  | ~1 nM | 0.94 nM

Row | Compound | LOPAC Screen Average %Response +/−Std Dev [1] | lowest level detectable in the assay system ([1]; no-wash protocol) | EC50 ([1]; read-out: EC50 (pharmacoperone rescue), presence of 1 μM vasopressin, no-wash protocol, absence of doxycycline (n=4)) | EC50 [1] | Ki ([2]; read-out: Ki (antagonist), no reference given) | Ki ([2]; read-out: Ki of SR121463 (literature value), used to perform the fit)
4 | C[C@H]1CCC/C=C/[C@@H]2C[C@H](O)C[C@H]2[C@H](O)/C=C/C(=O)O1 [Brefeldin A] | 43+/−1% |  |  | 270 nM |  | 
